Experimental data reported in US12552747B2, “Amino acid derivative containing non-steroidal anti-inflammatory drug structure and preparation method and application thereof” (priority 2020, dated 2026).
Marks after values point to notes of the source that are not given here.

What was measured:
[1] = system: Breast cancer MCF-7 cells; experiment: In vitro antitumor activity test (MTT), MCF-7; assay type: cell-based; conditions: Homo sapiens, MCF7; Breast cancer MCF-7, MTT, 24 h
Description: (§1) 13 human tumor cell lines were selected and cultured in RPMI-1640 medium (Gibco company) containing 10% inactivated fetal bovine serum, 100 U/ml penicillin and 100 U/ml streptomycin, cultured at 37° C. in a 5% CO2 incubator, and passaged once every 2 days. Using the MTT method, cells in the logarithmic growth phase were digested with 0.25% trypsin, centrifuged at 1000 r/min for 5 min, 8×10^3 cells were added to each well, and seeded in a 96-well plate, and 180 μl of cell suspension was added to each well, and a blank was set at the same time. The 96-well plate inoculated with tumor cells was placed in a carbon dioxide incubator for 24 hours, and then 20 μl of the drug was added, and an equal volume of culture medium was added to the blank control well, and the drug was divided into 8 concentrations from 50 μg/L to 0.4 μg/L. Three duplicate wells were set for each drug concentration and placed in an incubator for 24 h. 10 μl of MTT solution (5 mg/ml) was added to each well, and the culture was continued for 4 h. The supernatant was aspirated and discarded, 100 μl of dimethyl sulfoxide (DMSO) solution was added to each well, placed on a micro shaker for 10 min, and the absorbance (A value) was measured at a wavelength of 492 nm in a microplate reader, and the inhibition rate of the drug on tumor cells was calculated according to the following formula.
(§2) In this test, the IC50 value of the compound on tumor cells was calculated by the Origin software according to the inhibition rate of the compound. AC-201 in the following table was the abbreviation of PL-AC-201, and so on.

[2] = system: Liver cancer SK-hep1 cells; experiment: In vitro antitumor activity test (MTT), SK-hep1; assay type: cell-based; conditions: Homo sapiens, 24 h
Description: as §1, §2

Lung cancer H1299 cells = experiment: In vitro antitumor activity test (MTT), H1299; assay type: cell-based; conditions: Homo sapiens, NCI-H1299, 24 h
Description: as §1, §2

[3] = system: Cervical cancer Hela cells; experiment: In vitro antitumor activity test (MTT), Hela; assay type: cell-based; conditions: Homo sapiens, 24 h
Description: as §1, §2

Melanoma B16 cells = experiment: In vitro antitumor activity test (MTT), B16; assay type: cell-based; conditions: 24 h
Description: as §1, §2

[4] = system: Liver cancer HepG-2 cells; experiment: In vitro antitumor activity test (MTT), HepG-2; assay type: cell-based; conditions: Homo sapiens, HepG2; Liver cancer HepG-2, MTT, 24 h
Description: as §1, §2

[5] = system: Human osteosarcoma MG63 cells; experiment: In vitro antitumor activity test (MTT), MG63; assay type: cell-based; conditions: MG-63, 24 h
Description: as §1, §2

[6] = system: Liver cancer Bel-7402 cells; experiment: In vitro antitumor activity test (MTT), Bel-7402; assay type: cell-based; conditions: Homo sapiens; Liver cancer Bel-7402, MTT, 24 h
Description: as §1, §2

Lung cancer H292 cells = experiment: In vitro antitumor activity test (MTT), H292; assay type: cell-based; conditions: Homo sapiens, NCI-H292, 24 h
Description: as §1, §2

[7] = Acute toxicity test of single administration to ICR mice; conditions: mouse, in vivo, intravenous, single tail vein injection, observed 7 days
Description: ICR mice, 18-22 g, were raised in a common-grade animal room, fed with common feed, and ingested freely. The group distance and dose were determined after exploring the Dm and Dn of the compounds of the examples. Five concentrations of the compounds of the examples were formulated at the desired dose. The corresponding doses of drugs were injected into the tail vein according to body weight, and the blank control group was injected with normal saline. Immediately after administration, the performance and death of each animal were observed and recorded, and the possible toxic reaction or death of animals within 7 days after a single administration was observed and recorded.

human red blood cells = experiment: Detection of hemolytic activity; assay type: cell-based
Description: 2-3 ml of human blood was drawn using an anticoagulant tube, thoroughly mixed, and kept at 4° C. for later use. 2 ml of blood was aspirated and added with 2-3 ml of PBS, followed by gently pipetting and centrifugation for 5 min at 1000 rpm, which was repeated 3-4 times. After the last centrifugation, PBS was aspirated, PBS was added to 40 ml (20 times the volume), and the number of blood cells at this time was 2×10^8 cells/ml. The red blood cell suspension was added to the plate (U-shaped 96-well plate), and 70 μl/well was used as a negative well. Only PBS was added to blank wells, 140 μl/well. 2 ml of the red blood cell suspension was centrifuged, PBS was discarded, 2 ml of pure water was added, mixed well, and 140 μl/well was used as a positive well. The diluted polypeptide solutions of different concentrations were added to the plate, 70 μl/well. Incubated at 37° C., 87 rpm, shaken for 2h, centrifuged for 5 min at 3000 rpm. The OD value measured by microplate reader: After centrifugation, 90 μl of supernatant was drawn and transferred to a flat-bottom 96-well plate, and the OD value at 578 nm was measured by microplate reader. ODtest-OD negative >0.1 (the first concentration that met the conditions was MHC).

SK-hep1 liver tumors = experiment: Transplanted tumor in nude mice, intraperitoneal, SK-hep1; assay type: in vivo, BALB/c nude mice; conditions: 8 administrations; for Tumor inhibition rate / Tumor weight: SK-hep1, 5 mg/kg i.p. once every 3 days; for Body Weight After administration: SK-hep1 tumor-bearing BALB/c mice, 5 mg/kg i.p. once every 3 days
Description: (§3) BALB/c nude mice were used to inoculate Bel-7402, HepG-2 and SK-hep1 liver tumors according to the transplanted tumor research method under aseptic operation, and the cell density was not less than 5×10^6/ml, 0.2 ml was inoculated subcutaneously in the axilla of the right hind limb of each mouse. After the cells were inoculated, the cells were administered intraperitoneally (concentration: 5 mg/kg), once every 3 days, for a total of 8 administrations. After the 2nd day of drug withdrawal, all tumor-bearing mice were sacrificed, and their body weight, tumor weight and tumor inhibition were weighed.

HepG-2 liver tumors = experiment: Transplanted tumor in nude mice, intraperitoneal, HepG-2; assay type: in vivo, BALB/c nude mice; conditions: 8 administrations; for Tumor inhibition rate / Tumor weight: HepG-2, 5 mg/kg i.p. once every 3 days; for Body Weight After administration: HepG-2 tumor-bearing BALB/c mice, 5 mg/kg i.p. once every 3 days
Description: as §3

Lung cancer A549 cells = experiment: In vitro antitumor activity test (MTT), A549; assay type: cell-based; conditions: Homo sapiens, 24 h
Description: as §1, §2

Lung cancer H460 cells = experiment: In vitro antitumor activity test (MTT), H460; assay type: cell-based; conditions: Homo sapiens, NCI-H460, 24 h
Description: as §1, §2

Colon cancer HT29 cells = experiment: In vitro antitumor activity test (MTT), HT29; assay type: cell-based; conditions: Homo sapiens, HT-29, 24 h
Description: as §1, §2

[8] = system: Pancreatic cancer Bxpc-3 cells; experiment: In vitro antitumor activity test (MTT), Bxpc-3; assay type: cell-based; conditions: Homo sapiens; Pancreatic cancer Bxpc-3, MTT, 24 h
Description: as §1, §2

[9] = system: 13 human tumor cell lines; experiment: Average IC50 over the tumor cell lines (MTT); assay type: cell-based; conditions: mean IC50 for each tumor, read-out: AverageIC50
Description: as §1, §2
The ratio of the hemolytic concentration MHC of the compound to the mean IC50 for each tumor was referred to as the therapeutic index (TI). The safety of the compound was evaluated by the therapeutic index. The higher the therapeutic index, the greater the safety range of the compound.

Bel-7402 liver tumors = experiment: Transplanted tumor in nude mice, intraperitoneal, Bel-7402; assay type: in vivo, BALB/c nude mice; conditions: 8 administrations; for Tumor inhibition rate / Tumor weight: Bel-7402, 5 mg/kg i.p. once every 3 days; for Body Weight After administration: Bel-7402 tumor-bearing BALB/c mice, 5 mg/kg i.p. once every 3 days
Description: as §3

[10] = human red blood cells, 37° C., 2h, first concentration with ODtest-OD negative >0.1

With `CC1(C)CC(NC(=O)C(Cc2ccc(-c3ccccc3)cc2)NC(=O)Cc2ccccc2Nc2c(Cl)cccc2Cl)CC(C)(C)N1` (stereo not drawn) [PL-AC-203] the IC50 [1] was 23.1 nM, the IC50 [2] was 22.6 nM and the IC50 (Lung cancer H1299 cells) was 20.5 nM. For the same compound, the IC50 [3] was 20 nM, the IC50 (Melanoma B16 cells) was 30.1 nM and the IC50 [4] was 16 nM. The IC50 [5] was 26 nM, the IC50 [6] was 45.4 nM and the IC50 (Lung cancer H292 cells) was 24.9 nM. The LD50 at 7 days [7] was 39.8 mg/kg, the MHC (human red blood cells; hemolytic concentration, in nM) was 3e+06 nM and the MHC (human red blood cells; [10]) was 2000 µg/mL. The Tumor inhibition rate (SK-hep1 liver tumors) was “^ΔΔ68.3** %”, the Tumor weight (SK-hep1 liver tumors) was 355.2 ± 1.2 mg and the “Body Weight After administration” value (SK-hep1 liver tumors) was 24.7 ± 0.5 g. For the same compound, the Tumor inhibition rate (HepG-2 liver tumors) was “^ΔΔ72.4** %”, the Tumor weight (HepG-2 liver tumors) was 455.8 ± 9.9 mg and the “Body Weight After administration” value (HepG-2 liver tumors) was 22.7 ± 1.7 g. The IC50 (Lung cancer A549 cells) was 24.2 nM, the IC50 (Lung cancer H460 cells) was 20.8 nM and the IC50 (Colon cancer HT29 cells) was 37 nM. For the same compound, the IC50 [8] was 49.4 nM, the IC50 [9] was 27.7 nM and the Tumor inhibition rate (Bel-7402 liver tumors) was 58.7** %. For the same compound, the Tumor weight (Bel-7402 liver tumors) was 327.4 ± 10.4 mg and the “Body Weight After administration” value (Bel-7402 liver tumors) was 24.1 ± 0.9 g.

`COc1ccc2c(c1)c(CC(=O)NC(Cc1ccc(-c3ccccc3)cc1)C(=O)NC1CC(C)(C)NC(C)(C)C1)c(C)n2C(=O)c1ccc(Cl)cc1` (stereo not drawn) [PL-AC-205] gave an IC50 [1] of 23.2 nM, an IC50 [2] of 12.4 nM and an IC50 (Lung cancer H1299 cells) of 20.3 nM. For the same compound, the IC50 [3] was 19.5 nM, the IC50 (Melanoma B16 cells) was 31.7 nM and the IC50 [4] was 16.2 nM. The IC50 [5] was 25.7 nM, the IC50 [6] was under 38.2 nM and the IC50 (Lung cancer H292 cells) was 27.4 nM. The LD50 at 7 days [7] was 35.6 mg/kg, the MHC (human red blood cells; hemolytic concentration, in nM) was 4.2e+06 nM and the MHC (human red blood cells; [10]) was 3000 µg/mL. The Tumor inhibition rate (SK-hep1 liver tumors) was 62.0** %, the Tumor weight (SK-hep1 liver tumors) was 425.8 ± 10.7 mg and the “Body Weight After administration” value (SK-hep1 liver tumors) was 22.2 ± 0.9 g. For the same compound, the Tumor inhibition rate (HepG-2 liver tumors) was “^Δ71.8** %”, the Tumor weight (HepG-2 liver tumors) was 465.6 ± 5.9 mg and the “Body Weight After administration” value (HepG-2 liver tumors) was 21.9 ± 1.2 g. The IC50 (Lung cancer A549 cells) was 24.5 nM, the IC50 (Lung cancer H460 cells) was 20.3 nM and the IC50 (Colon cancer HT29 cells) was 37 nM. For the same compound, the IC50 [8] was 45.3 nM, the IC50 [9] was 25.3 nM and the Tumor inhibition rate (Bel-7402 liver tumors) was “^ΔΔ69.4** %”. For the same compound, the Tumor weight (Bel-7402 liver tumors) was 242.8 ± 6.6 mg and the “Body Weight After administration” value (Bel-7402 liver tumors) was 23.9 ± 0.6 g.

Work on `CC(C(=O)NC(Cc1ccc(-c2ccccc2)cc1)C(=O)NC1CC(C)(C)NC(C)(C)C1)c1cccc(C(=O)c2ccccc2)c1` (stereo not drawn) [PL-AC-206] yielded an IC50 [1] of 22.5 nM, an IC50 [2] of 15.7 nM and an IC50 (Lung cancer H1299 cells) of 20.2 nM. The IC50 [3] was 19.2 nM, the IC50 (Melanoma B16 cells) was 30.1 nM and the IC50 [4] was 16.1 nM. It also gave an IC50 [5] of 24.9 nM, an IC50 [6] of under 38.2 nM and an IC50 (Lung cancer H292 cells) of 24.1 nM. The LD50 at 7 days [7] was 31.7 mg/kg, the MHC (human red blood cells; hemolytic concentration, in nM) was 4.9e+06 nM and the MHC (human red blood cells; [10]) was 3000 µg/mL. The Tumor inhibition rate (SK-hep1 liver tumors) was “^ΔΔ69.9** %”, the Tumor weight (SK-hep1 liver tumors) was 337.3 ± 6.1 mg and the “Body Weight After administration” value (SK-hep1 liver tumors) was 23.0 ± 1.5 g. The Tumor inhibition rate (HepG-2 liver tumors) was “^ΔΔ74.6** %”, the Tumor weight (HepG-2 liver tumors) was 468.9 ± 2.2 mg and the “Body Weight After administration” value (HepG-2 liver tumors) was 23.5 ± 1.1 g. For the same compound, the IC50 (Lung cancer A549 cells) was 27.5 nM, the IC50 (Lung cancer H460 cells) was 20 nM and the IC50 (Colon cancer HT29 cells) was 37.4 nM. The IC50 [8] was 37.7 nM, the IC50 [9] was 24.6 nM and the Tumor inhibition rate (Bel-7402 liver tumors) was “^ΔΔ71.4** %”. The Tumor weight (Bel-7402 liver tumors) was 226.8 ± 9.1 mg and the “Body Weight After administration” value (Bel-7402 liver tumors) was 23.8 ± 1.3 g.
